Assay results as given in patent US20220411388A1, “SUBSTITUTED IMIDAZOLE CARBOXAMIDES AND THEIR USE IN THE TREATMENT OF MEDICAL DISORDERS” (Bial - R&D Investments, S.A., priority 2019, published 2022).
In brackets after ≈: the same amount, converted by molar mass.

Key:
acid ceramidase (hACR) = biological target: T1, acid ceramidase (hACR) (Homo sapiens, UniProt Q13510); assay: Acid ceramidase inhibition, biochemical fluorescent assay with cell lysates overexpressing acid ceramidase (substrate Rbm14-12); details: cell lysate, 1 hr preincubation at RT, pH 4.5, Rbm14-12 6.3 μM; read-out: IC50 hACR
T1 construct: expressed in transfected cells
T1 sequence (Q13510 22-395): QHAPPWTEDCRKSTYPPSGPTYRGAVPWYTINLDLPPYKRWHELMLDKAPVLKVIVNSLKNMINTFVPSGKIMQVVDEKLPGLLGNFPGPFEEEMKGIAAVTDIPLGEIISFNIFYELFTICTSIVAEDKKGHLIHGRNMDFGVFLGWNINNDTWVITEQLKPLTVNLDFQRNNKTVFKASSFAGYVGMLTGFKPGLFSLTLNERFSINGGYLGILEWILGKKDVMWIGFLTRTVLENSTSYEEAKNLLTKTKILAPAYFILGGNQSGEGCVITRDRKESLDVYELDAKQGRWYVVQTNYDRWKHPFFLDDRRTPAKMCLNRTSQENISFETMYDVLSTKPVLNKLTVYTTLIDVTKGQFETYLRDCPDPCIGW
Method in brief: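 Enzyme source was lysate from cells overexpressing acid ceramidase, 10 µg protein per reaction. Compounds were preincubated 1 h at RT in 25 mM NaAc, 100 mM NaCl, pH 4.5.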

[1] = Compound solubility in water; type: physicochemical

Structure (SMILES)	IC50 (acid ceramidase (hACR)) [nM]	solubility [1] [µg/mL]
CN1CCC(Oc2nc(Cl)cn2C(=O)NCCCC(F)(F)F)CC1 [Example 188, 4-Chloro-2-((1-methylpiperidin-4-yl)oxy)-N-(4,4,4-trifluorobutyl)-1H-imidazole-1-carboxamide]	200 to 1000	36 (≈ 97.6 µM)
COc1nc(Cl)cn1C(=O)NC1CC1 [Example 189, 4-Chloro-N-cyclopropyl-2-methoxy-1H-imidazole-1-carboxamide]	> 1000	26 (≈ 121 µM)
Cc1cn(C(=O)NCCc2ccccc2)c(OCCN2CCN(C)CC2)n1 [Example 190, 4-Methyl-2-(2-(4-methylpiperazin-1-yl)ethoxy)-N-phenethyl-1H-imidazole-1-carboxamide]	< 200	39 (≈ 105 µM)
O=C(NCCC1CCCC1(F)F)n1cc(Cl)nc1OCCN1CCOCC1 (stereo not drawn) [Example 191, 4-Chloro-N-(2-(2,2-difluorocyclopentyl)ethyl)-2-(2-morpholinoethoxy)-1H-imidazole-1-carboxamide]	200 to 1000	33 (≈ 81.1 µM)
COc1nc(-c2cccnc2N2CCN(C)CC2)cn1C(=O)NCC#CC(C)C [Example 194, 2-Methoxy-N-(4-methylpent-2-yn-1-yl)-4-(2-(4-methylpiperazin-1-yl)pyridin-3-yl)-1H-imidazole-1-carboxamide]	> 1000	45 (≈ 113 µM)
COc1nc(-c2cccnc2N2CCN(C)CC2)cn1C(=O)NCCCC1(C(F)(F)F)CC1 [Example 195]	> 1000	35 (≈ 75 µM)
Cc1cn(C(=O)NCC#Cc2ccccc2)c(OCCN2CCOCC2)n1 [Example 196, 4-Methyl-2-(2-morpholinoethoxy)-N-(3-phenylprop-2-yn-1-yl)-1H-imidazole-1-carboxamide]	< 200	31 (≈ 84.1 µM)
Cc1cn(C(=O)NCC#Cc2ccccc2)c(OCCN2CCN(C)CC2)n1 [Example 197, 4-Methyl-2-(2-(4-methylpiperazin-1-yl)ethoxy)-N-(3-phenylprop-2-yn-1-yl)-1H-imidazole-1-carboxamide]	< 200	38 (≈ 99.6 µM)
Cc1cn(C(=O)NCCCC(F)(F)F)c(OCCN2CCN(C)CC2)n1 [Example 198, 4-Methyl-2-(2-(4-methylpiperazin-1-yl)ethoxy)-N-(4,4,4-trifluorobutyl)-1H-imidazole-1-carboxamide]	200 to 1000	38 (≈ 101 µM)
Cc1cn(C(=O)NCCOc2ccccc2)c(OCCN2CCN(C)CC2)n1 [Example 199, 4-Methyl-2-(2-(4-methylpiperazin-1-yl)ethoxy)-N-(2-phenoxyethyl)-1H-imidazole-1-carboxamide]	< 200	50 (≈ 129 µM)
Cc1cn(C(=O)NCCCC2(C(F)(F)F)CC2)c(OCCN2CCN(C)CC2)n1 [Example 200, 4-Methyl-2-(2-(4-methylpiperazin-1-yl)ethoxy)-N-(3-(1-(trifluoromethyl)cyclopropyl)propyl)-1H-imidazole-1-carboxamide]	< 200	49 (≈ 117 µM)
Cc1cn(C(=O)NCC#CCc2ccccc2)c(OCCN2CCN(C)CC2)n1 [Example 201, 4-Methyl-2-(2-(4-methylpiperazin-1-yl)ethoxy)-N-(4-phenylbut-2-ynyl)-1H-imidazole-1-carboxamide]	< 200	39 (≈ 98.6 µM)
CN1CCN(CCOc2nc(-c3ccccc3)cn2C(=O)NCC#Cc2ccccc2)CC1 [Example 202]	< 200	7 (≈ 15.8 µM)
Cc1cn(C(=O)NCc2ccc(-c3ccccc3)cc2)c(OCCN2CCN(C)CC2)n1 [Example 203, N-(Biphenyl-4-ylmethyl)-4-methyl-2-(2-(4-methylpiperazin-1-yl)ethoxy)-1H-imidazole-1-carboxamide]	< 200	30 (≈ 69.2 µM)
CN1CCC(c2cn(C(=O)NCCC#Cc3ccccc3)cn2)CC1 [Example 204, 4-(1-Methylpiperidin-4-yl)-N-(4-phenylbut-3-yn-1-yl)-1H-imidazole-1-carboxamide]	< 200	31 (≈ 92.1 µM)
